Assay results as given in patent publication US20070275968A1, “Substituted Biphenyl Derivative” (priority 2004, published 2007).

Experiments:
[1] = tested on: NRK-49F cells; assay: Collagen synthesis inhibition test; assay type: cell-based; conditions: Rattus norvegicus, 25 ng/mL TGF-β added, cultured about 44 hr, 3H-labeled proline taken into collagen, no TGF-β = 100% inhibition, no test compound = 0% inhibition, read-out: Collagen synthesis inhibiting activity IC50
Method: Collagen Synthesis Inhibition Test
Collagen synthesis inhibiting activity was evaluated by the following assay.
NRK-49F cells (Dainippon Pharmaceutical) are seeded into a 96-well plate. After becoming confluent, the medium is changed to a serum-free Dulbecco's modified MEM medium (Invitrogen) containing 5 μg/mL insulin, 5 μg/mL transferin, and 5 ng/mL selenious acid. One day later, the medium is changed to a serum-free Dulbecco's modified MEM medium (80 μl) containing 10 ng/mL IGF-II (Sigma) and 50 μg/mL L-ascorbic acid (Sigma), and a ten times concentration of a test compound (10 μl) is added thereto. Thirty minutes later, 25 ng/mL TGF-β (R&D System: 10 μL) is added to the medium, and the cells are cultured for about 44 hr. Twenty four hours before the termination of the culturing, ^3H-labeled proline (Amersham: 1 μCi) is added so as to be taken into collagen in the cells. When the culturing is terminated, 30% trichloroacetic acid (50 μL) is added to the medium. After leaving for 20 min, proteins are precipitated by centrifugation at 3000 rpm for 10 min. The supernatant is removed, and the residue is twice washed with 200 μL of a washing solution (ethanol:ether=3:1). The precipitate is air-dried, and the washing solution is sufficiently removed. After addition of 60 μL of a collagenase solution (2 mg/mL collagenase VII (Sigma), 50 mM Tris-HCl (pH 7.4), 5 mM CaCl2), the resulting mixture is treated at 37° C. for 2 hr to decompose collagen. Then, 90 μL of 15% trichloroacetic acid and 5% tannic acid are added thereto. The resulting mixture is left for 20 min and then centrifuged at 3000 rpm for 10 min. The supernatant (50 μL) is transferred to LumaPlate (PerkinElmer Lifescience) and is air-dried. Then, the amount of ^3H is measured by a Top Count.

Structure (SMILES) | IC50 [1] [nM] | melting point [°C]
Cc1cccc(-c2n[nH]cc2-c2ccc(F)c(-c3c[nH]c(C(C)(C)O)n3)c2)n1 [Example 161, 2-(4-{2-Fluoro-5-[3-(6-methylpyridin-2-yl)-1H-pyrazol-4-yl]phenyl}-1H-imidazol-2-yl)propan-2-ol] | 100 | 135 to 137
Cc1cccc(-c2n[nH]cc2-c2ccc(F)c(-c3cn(CCO)cn3)c2)n1 [Example 177, 2-(4-{2-Fluoro-5-[3-(6-methylpyridin-2-yl)-1H-pyrazol-4-yl]phenyl}-1H-imidazol-1-yl)ethanol] | 50 | 248
Cc1cccc(-c2n[nH]cc2-c2ccc(F)c(-c3ccc(N4CCOCC4)cn3)c2)n1 [Example 179, 4-(6-{2-Fluoro-5-[3-(6-methylpyridin-2-yl)-1H-pyrazol-4-yl]phenyl}pyridin-3-yl)morpholine] | 40 | 88 to 90
Cc1cccc(-c2n[nH]cc2-c2ccc(F)c(-c3cc[nH]c3)c2)n1 [Example 189, 2-{4-[4-Fluoro-3-(1H-pyrrol-3-yl)phenyl]-1H-pyrazol-3-yl}-6-methylpyridine] | 20 | 162 to 164
Cc1cccc(-c2n[nH]cc2-c2ccc(F)c(-c3ccc(S(N)(=O)=O)cc3)c2)n1 [Example 190, 2′-Fluoro-5′-[3-(6-methylpyridin-2-yl)-1H-pyrazol-4-yl]-1,1′-biphenyl-4-sulfonamide] | 40 | 115 to 118
NS(=O)(=O)c1ccc(-c2cc(-c3c[nH]nc3-c3ccccn3)ccc2F)cc1 [Example 202, 2′-Fluoro-5′-(3-pyridin-2-yl-1H-pyrazol-4-yl)-1,1′-biphenyl-4-sulfonamide] | 290 | 128
Cc1cccc(-c2n[nH]cc2-c2ccc(F)c(-c3c[nH]c(CCO)n3)c2)n1 [Example 209, 2-(4-{2-Fluoro-5-[3-(6-methylpyridin-2-yl)-1H-pyrazol-4-yl]phenyl}-1H-imidazol-2-yl)ethanol] | 50 | 219 to 220
Cc1cccc(-c2n[nH]cc2-c2ccc(F)c(-c3cn4c(n3)S(=O)(=O)CC4)c2)n1 [Example 212, 6-{2-Fluoro-5-[3-(6-methylpyridin-2-yl)-1H-pyrazol-4-yl]phenyl}-2,3-dihydroimidazo[2,1-b][1,3]thiazole 1,1-dioxide] | 110 | 134 to 138

Now from value to compound:

IC50 [1] [nM] | melting point [°C] | Structure (SMILES)
20 | 168 to 169 | Cc1cccc(-c2n[nH]cc2-c2ccc(F)c(-c3cn(C)cn3)c2)n1 [Example 172, 2-{4-[4-Fluoro-3-(1-methyl-1H-imidazol-4-yl)phenyl]-1H-pyrazol-3-yl}-6-methylpyridine]
20 | 68 to 70 | Cc1cccc(-c2n[nH]cc2-c2ccc(F)c(-c3ccc(CN4CCOCC4)cn3)c2)n1 [Example 181, 4-[(6-{2-Fluoro-5-[3-(6-methylpyridin-2-yl)-1H-pyrazol-4-yl]phenyl}pyridin-3-yl)methyl]morpholine]
10 | 110 to 112 | Cc1cccc(-c2n[nH]cc2-c2ccc(F)c(-c3cn[nH]c3)c2)n1 [Example 194, 2-{4-[4-Fluoro-3-(1H-pyrazol-4-yl)phenyl]-1H-pyrazol-3-yl}-6-methylpyridine]
10 | 155 to 156 | Cc1cccc(-c2n[nH]cc2-c2ccc(F)c(-c3cnn(C)c3)c2)n1 [Example 195, 2-{4-[4-Fluoro-3-(1-methyl-1H-pyrazol-4-yl)phenyl]-1H-pyrazol-3-yl}-6-methylpyridine]
10 | 229 to 233 | Cc1cccc(-c2n[nH]cc2-c2ccc(F)c(-c3c[nH]cn3)c2)n1 [Example 206, 2-{4-[4-Fluoro-3-(1H-imidazol-4-yl)phenyl]-1H-pyrazol-3-yl}-6-methylpyridine]
10 | 153 to 155 | Cc1cccc(-c2nc(N)sc2-c2ccc(F)c(-c3cnn(C)c3)c2)n1 [Example 217, 5-[4-Fluoro-3-(1-methyl-1H-pyrazol-4-yl)phenyl]-4-(6-methylpyridin-2-yl)-1,3-thiazol-2-amine]
